Measurements reported in patent publication US8178506B2, “Oligomeric compounds and compositions for use in modulation of small non-coding RNAs” (Regulus Therapeutics Inc., priority 2003, dated 2012).
In the oligonucleotide strings, read from the 5' end, every base follows the letter of its sugar. An asterisk marks phosphorothioate; unmarked linkages are phosphodiester. Other units and linkages are bracketed, terminal groups are in braces. A string of capitals states the bases alone. e = 2'-O-(2-methoxyethyl) (MOE); [5mC] = 5-methylcytosine

Tests used:
HSL = HSL mRNA expression in adipocytes (real-time PCR); type: cell-based, human; conditions: differentiating adipocytes transfected with oligomeric compound
PPARγ = PPARγ mRNA expression in adipocytes (real-time PCR); type: cell-based, human; conditions: differentiating adipocytes transfected with oligomeric compound
adipocytes = assay: Triglyceride accumulation assay in adipocytes; type: cell-based, human; conditions: differentiating adipocytes transfected with oligomeric compound
aP2 = aP2 mRNA expression in adipocytes (real-time PCR); type: cell-based, human; conditions: differentiating adipocytes transfected with oligomeric compound; for aP2 mRNA: Table 75
HuVECs = assay: Endothelial tube formation assay in HuVECs; conditions: for % Activity Relative to UTC (tube formation): 75 nM oligomeric compound; for tube formation: 75 nM
Glut4 = Glut4 mRNA expression in adipocytes (real-time PCR); type: cell-based, human; conditions: differentiating adipocytes transfected with oligomeric compound
[1] = tested on: BJ, B16-F10, T47D, T47Dp53 and HeLa cells; assay: Cell cycle assay (propidium iodide flow cytometry), cell line panel; type: cell-based; conditions: 150 nM oligomeric compound, 4.5 μg/ml LIPOFECTIN, after 72 hours, propidium iodide flow cytometry

327879 (antisense eA*eA*e[5mC]*eA*eA*eA*eA*eT*e[5mC]*eA*e[5mC]*eT*eA*eG*eT*e[5mC]*eT*eT*e[5mC]*e[5mC]*eA) [compound 327879]
HSL mRNA (HSL; Table 75): 103 percentage of untreated control (UTC)
PPAR gamma mRNA (PPARγ; Table 75): 81 percentage of untreated control (UTC)
TG (triglyceride accumulation) (adipocytes; Table 75): 59 percentage of untreated control (UTC)
aP2 mRNA (aP2): 103 percentage of untreated control (UTC)
% Activity Relative to UTC (tube formation) (HuVECs; Table 56): 71.4%
GLUT4 mRNA (Glut4; Table 75): 99 percentage of untreated control (UTC)

327914 (antisense eG*e[5mC]*e[5mC]*e[5mC]*eT*eT*eT*eT*eA*eA*e[5mC]*eA*eT*eT*eG*e[5mC]*eA*e[5mC]*eT*eG) [compound 327914]
G1 (percentage of cells in phase of the cell cycle) [1]: 55.8%
G2/M (percentage of cells in phase of the cell cycle) [1]: 15.3%
S (percentage of cells in phase of the cell cycle) [1]: 28.9%
SubG1 (percentage of cells in phase of the cell cycle) [1]: 8.5%
aneuploid (percentage of cells) [1]: 16.2%
% Activity Relative to UTC (tube formation) (HuVECs; Table 57): 82.8%

327953 (antisense eA*eG*eA*eA*eT*eT*eG*e[5mC]*eG*eT*eT*eT*eG*eG*eA*e[5mC]*eA*eA*eT*e[5mC]*eA) [compound 327953]
HSL mRNA (HSL): 94 percentage of untreated control (UTC)
PPAR gamma mRNA (PPARγ): 90 percentage of untreated control (UTC)
TG (triglyceride accumulation) (adipocytes): 94 percentage of untreated control (UTC)
AP2 mRNA (aP2): 92 percentage of untreated control (UTC)
% Activity Relative to UTC (tube formation) (HuVECs; Table 59): 53.3%
GLUT4 mRNA (Glut4): 112 percentage of untreated control (UTC)

327929 (antisense eG*eA*eA*e[5mC]*eA*eG*eA*eT*eA*eG*eT*e[5mC]*eT*eA*eA*eA*e[5mC]*eA*e[5mC]*eT*eG*eG*eG) [compound 327929]
HSL mRNA (HSL; Table 75): 68 percentage of untreated control (UTC)
PPAR gamma mRNA (PPARγ; Table 75): 71 percentage of untreated control (UTC)
TG (triglyceride accumulation) (adipocytes; Table 75): 65 percentage of untreated control (UTC)
aP2 mRNA (aP2): 62 percentage of untreated control (UTC)
% Activity Relative to UTC (tube formation) (HuVECs; Table 58): 51.9%
GLUT4 mRNA (Glut4; Table 75): 49 percentage of untreated control (UTC)

327891 (antisense eG*eG*e[5mC]*e[5mC]*eG*eT*eG*eA*e[5mC]*eT*eG*eG*eA*eG*eA*e[5mC]*eT*eG*eT*eT*eA) [compound 327891]
HSL mRNA (HSL; Table 75): 52 percentage of untreated control (UTC)
PPAR gamma mRNA (PPARγ; Table 75): 50 percentage of untreated control (UTC)
TG (triglyceride accumulation) (adipocytes; Table 75): 22 percentage of untreated control (UTC)
aP2 mRNA (aP2): 56 percentage of untreated control (UTC)
% Activity Relative to UTC (tube formation) (HuVECs; Table 56): 50.0%
GLUT4 mRNA (Glut4; Table 75): 47 percentage of untreated control (UTC)

327968 (antisense e[5mC]*eA*eA*eT*eG*e[5mC]*eA*eA*e[5mC]*eA*eG*e[5mC]*eA*eA*eT*eG*e[5mC]*eA*e[5mC]) [compound 327968]
HSL mRNA (HSL; Table 75): 79 percentage of untreated control (UTC)
PPAR gamma mRNA (PPARγ; Table 75): 79 percentage of untreated control (UTC)
TG (triglyceride accumulation) (adipocytes; Table 75): 94 percentage of untreated control (UTC)
aP2 mRNA (aP2): 67 percentage of untreated control (UTC)
% Activity Relative to UTC (tube formation) (HuVECs; Table 59): 93.3%
GLUT4 mRNA (Glut4; Table 75): 85 percentage of untreated control (UTC)

342672 (antisense eA*eT*eA*e[5mC]*e[5mC]*eG*e[5mC]*eG*eA*eT*e[5mC]*eA*eG*eT*eG*e[5mC]*eA*eT*e[5mC]*eT*eT*eT) [compound 342672]
% Activity Relative to UTC (tube formation) (HuVECs; Table 56): 46.4%
% Activity Relative to UTC (tube formation) (HuVECs; Table 57): 58.6%
% Activity Relative to UTC (tube formation) (HuVECs; Table 58): 55.6%
% Activity Relative to UTC (tube formation) (HuVECs; Table 59): 60.0%

327943 (antisense eT*eA*eT*e[5mC]*eT*eG*e[5mC]*eA*e[5mC]*eT*eA*eG*eA*eT*eG*e[5mC]*eA*e[5mC]*e[5mC]*eT*eT*eA) [compound 327943]
HSL mRNA (HSL; Table 75): 109 percentage of untreated control (UTC)
PPAR gamma mRNA (PPARγ; Table 75): 98 percentage of untreated control (UTC)
TG (triglyceride accumulation) (adipocytes; Table 75): 112 percentage of untreated control (UTC)
aP2 mRNA (aP2): 106 percentage of untreated control (UTC)
% Activity Relative to UTC (tube formation) (HuVECs; Table 58): 81.5%
GLUT4 mRNA (Glut4; Table 75): 87 percentage of untreated control (UTC)

ATCCAATCAGTTCCTGATGCAGTA (chemistry not given here) [ISIS 327966]
tube formation (HuVECs): suppressed tube formation

327932 (antisense eA*eG*eG*e[5mC]*eA*eT*eA*eG*eG*eA*eT*eG*eA*e[5mC]*eA*eA*eA*eG*eG*eG*eA*eA) [compound 327932]
% Activity Relative to UTC (tube formation) (HuVECs; Table 58): 51.9%

327962 (antisense eG*e[5mC]*eT*eG*eA*eG*eA*eG*eT*eG*eT*eA*eG*eG*eA*eT*eG*eT*eT*eT*eA*e[5mC]*eA) [compound 327962]
HSL mRNA (HSL; Table 75): 77 percentage of untreated control (UTC)
PPAR gamma mRNA (PPARγ; Table 75): 80 percentage of untreated control (UTC)
TG (triglyceride accumulation) (adipocytes; Table 75): 64 percentage of untreated control (UTC)
aP2 mRNA (aP2): 75 percentage of untreated control (UTC)
% Activity Relative to UTC (tube formation) (HuVECs; Table 59): 53.3%
GLUT4 mRNA (Glut4; Table 75): 58 percentage of untreated control (UTC)

327915 (antisense eA*e[5mC]*eA*eT*eG*eG*eT*eT*eA*eG*eA*eT*e[5mC]*eA*eA*eG*e[5mC]*eA*e[5mC]*eA*eA) [compound 327915]
% Activity Relative to UTC (tube formation) (HuVECs; Table 57): 69.0%

GCTGAGTGTAGGATGTTTACA (anti-miR; chemistry not fully specified) [ISIS 327948]
tube formation (HuVECs): suppressed tube formation

327894 (antisense eA*eT*eA*e[5mC]*eA*eT*eA*e[5mC]*eT*eT*e[5mC]*eT*eT*eT*eA*e[5mC]*eA*eT*eT*e[5mC]*e[5mC]*eA) [compound 327894]
% Activity Relative to UTC (tube formation) (HuVECs; Table 56): 100.0%

327966 (antisense eA*eT*e[5mC]*e[5mC]*eA*eA*eT*e[5mC]*eA*eG*eT*eT*e[5mC]*e[5mC]*eT*eG*eA*eT*eG*e[5mC]*eA*eG*eT*eA) [compound 327966]
HSL mRNA (HSL; Table 75): 56 percentage of untreated control (UTC)
PPAR gamma mRNA (PPARγ; Table 75): 77 percentage of untreated control (UTC)
TG (triglyceride accumulation) (adipocytes; Table 75): 52 percentage of untreated control (UTC)
aP2 mRNA (aP2): 53 percentage of untreated control (UTC)
% Activity Relative to UTC (tube formation) (HuVECs; Table 59): 40.0%
GLUT4 mRNA (Glut4; Table 75): 43 percentage of untreated control (UTC)

327937 (antisense eG*eA*eT*eT*e[5mC]*eA*e[5mC]*eA*eA*e[5mC]*eA*e[5mC]*e[5mC]*eA*eG*e[5mC]*eT) [compound 327937]
HSL mRNA (HSL): 77 percentage of untreated control (UTC)
PPAR gamma mRNA (PPARγ): 92 percentage of untreated control (UTC)
TG (triglyceride accumulation) (adipocytes): 81 percentage of untreated control (UTC)
AP2 mRNA (aP2): 76 percentage of untreated control (UTC)
% Activity Relative to UTC (tube formation) (HuVECs; Table 58): 88.9%
GLUT4 mRNA (Glut4): 63 percentage of untreated control (UTC)

327898 (antisense eG*eT*eA*eG*eT*eG*e[5mC]*eT*eT*eT*e[5mC]*eT*eA*e[5mC]*eT*eT*eT*eA*eT*eG) [compound 327898]
HSL mRNA (HSL; Table 75): 92 percentage of untreated control (UTC)
PPAR gamma mRNA (PPARγ; Table 75): 101 percentage of untreated control (UTC)
TG (triglyceride accumulation) (adipocytes; Table 75): 102 percentage of untreated control (UTC)
aP2 mRNA (aP2): 96 percentage of untreated control (UTC)
% Activity Relative to UTC (tube formation) (HuVECs; Table 56): 100.0%
GLUT4 mRNA (Glut4; Table 75): 82 percentage of untreated control (UTC)

327960 (antisense eG*eT*e[5mC]*eT*eG*eT*e[5mC]*eA*eA*eT*eT*e[5mC]*eA*eT*eA*eG*eG*eT*e[5mC]*eA*eT) [compound 327960]
HSL mRNA (HSL): 52 percentage of untreated control (UTC)
PPAR gamma mRNA (PPARγ): 76 percentage of untreated control (UTC)
TG (triglyceride accumulation) (adipocytes): 47 percentage of untreated control (UTC)
AP2 mRNA (aP2): 52 percentage of untreated control (UTC)
% Activity Relative to UTC (tube formation) (HuVECs; Table 59): 53.3%
GLUT4 mRNA (Glut4): 34 percentage of untreated control (UTC)

327875 (antisense eA*e[5mC]*eA*eA*e[5mC]*e[5mC]*eA*eG*e[5mC]*eT*eA*eA*eG*eA*e[5mC]*eA*e[5mC]*eT*eG*e[5mC]*e[5mC]*eA) [compound 327875]
% Activity Relative to UTC (tube formation) (HuVECs; Table 56): 71.4%

327881 (antisense eA*eA*eA*eA*eG*eA*eG*eA*e[5mC]*e[5mC]*eG*eG*eT*eT*e[5mC]*eA*e[5mC]*eT*eG*eT*eG*eA) [compound 327881]
HSL mRNA (HSL; Table 75): 93 percentage of untreated control (UTC)
PPAR gamma mRNA (PPARγ; Table 75): 98 percentage of untreated control (UTC)
TG (triglyceride accumulation) (adipocytes; Table 75): 91 percentage of untreated control (UTC)
aP2 mRNA (aP2): 95 percentage of untreated control (UTC)
% Activity Relative to UTC (tube formation) (HuVECs; Table 56): 50.0%
GLUT4 mRNA (Glut4; Table 75): 97 percentage of untreated control (UTC)
